One compound from paper PMC7269503 (Antimicrobial Agents and Chemotherapy, 2020) can be followed below.

Values after ≈ are worked out from the molar mass of the structure shown.

The test system of data set [1] is OPC-167832-resistant isolates of M. tuberculosis H37Rv. Type of data set: cell-based.
The conditions of data set [2]: female, ICR, mouse, in vivo, po, 2.5 mg/kg.

In the case of `O=C1CCc2c(OC[C@]3(O)CCN(c4c(F)cc(Cl)cc4F)C[C@H]3O)ccc(F)c2N1` [OPC-167832], in data set [1], the “MIC against Rv0678 mutants” value turned out to be 1 ng/mL (≈ 2.19 nM). Further, in data set [2], the “AUCt/12 h/MIC” value is reported as 95 fold and the Cmax/MIC was determined as 314 fold.
